Key:
Test in all cases: relative viability (nuclei count vs DMSO), 5 days (fraction); higher = more cells survive
HCC-78 = system: HCC-78
Outline: (§1)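 Relative viability is defined as nuclei in treated wells over nuclei in vehicle wells. Duplicate plates were run and medians reported. Lung cancer cell lines in 1536-well plates were dosed by pin tool one day after seeding, with one drug or with a fixed anchor-drug dose plus five library-drug doses (not always all listed) in √10 steps, and nuclei were counted after 5 days.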

CAL-12T = system: CAL-12T
Outline: as §1

HOP-62 = system: HOP-62
Outline: as §1

NCI-H1944 = system: NCI-H1944
Outline: as §1

NCI-H2347 = system: NCI-H2347
Outline: as §1

201T = system: 201T
Outline: as §1

BEN = system: BEN
Outline: as §1

NCI-H1915 = system: NCI-H1915
Outline: as §1

NCI-H838 = system: NCI-H838
Outline: as §1

NCI-H1355 = system: NCI-H1355
Outline: as §1

NCI-H650 = system: NCI-H650
Outline: as §1

NCI-H322M = system: NCI-H322M
Outline: as §1

NCI-H1793 = system: NCI-H1793
Outline: as §1

NCI-H441 = system: NCI-H441
Outline: as §1

LCLC-97TM1 = system: LCLC-97TM1
Outline: as §1

LOU-NH91 = system: LOU-NH91
Outline: as §1

NCI-H2126 = system: NCI-H2126
Outline: as §1

NCI-H3122 = system: NCI-H3122
Outline: as §1

NCI-H1395 = system: NCI-H1395
Outline: as §1

NCI-H1651 = system: NCI-H1651
Outline: as §1

SMILES: CCNC(=O)c1noc(-c2cc(C(C)C)c(O)cc2O)c1-c1ccc(CN2CCOCC2)cc1 [Luminespib] + NC(=O)Nc1cc(-c2cccc(F)c2)sc1C(=O)N[C@H]1CCCNC1 [AZD7762] (partner 0.2 µM)
- relative viability (HCC-78; first compound 0.002 µM): 0.562
- relative viability (HCC-78; first compound 0.006325 µM): 0.591
- relative viability (HCC-78; first compound 0.02 µM): 0.536
- relative viability (HCC-78; first compound 0.06325 µM): 0.497
- relative viability (HCC-78; first compound 0.2 µM): 0.333
- relative viability (CAL-12T; first compound 0.002 µM): 0.698
- relative viability (CAL-12T; first compound 0.006325 µM): 0.691
- relative viability (CAL-12T; first compound 0.02 µM): 0.542
- relative viability (CAL-12T; first compound 0.06325 µM): 0.188
- relative viability (CAL-12T; first compound 0.2 µM): 0.182
- relative viability (HOP-62; first compound 0.002 µM): 0.437
- relative viability (HOP-62; first compound 0.006325 µM): 0.463
- relative viability (HOP-62; first compound 0.02 µM): 0.306
- relative viability (HOP-62; first compound 0.06325 µM): 0.129
- relative viability (HOP-62; first compound 0.2 µM): 0.109
- relative viability (NCI-H1944; first compound 0.002 µM): 0.525
- relative viability (NCI-H1944; first compound 0.006325 µM): 0.426
- relative viability (NCI-H1944; first compound 0.02 µM): 0.307
- relative viability (NCI-H1944; first compound 0.06325 µM): 0.149
- relative viability (NCI-H1944; first compound 0.2 µM): 0.134
- relative viability (NCI-H2347; first compound 0.002 µM): 0.844
- relative viability (NCI-H2347; first compound 0.006325 µM): 0.719
- relative viability (NCI-H2347; first compound 0.02 µM): 0.614
- relative viability (NCI-H2347; first compound 0.06325 µM): 0.469
- relative viability (NCI-H2347; first compound 0.2 µM): 0.202
- relative viability (201T; first compound 0.002 µM): 0.621
- relative viability (201T; first compound 0.006325 µM): 0.555
- relative viability (201T; first compound 0.02 µM): 0.525
- relative viability (201T; first compound 0.06325 µM): 0.516
- relative viability (201T; first compound 0.2 µM): 0.318
- relative viability (BEN; first compound 0.002 µM): 0.687
- relative viability (BEN; first compound 0.006325 µM): 0.669
- relative viability (BEN; first compound 0.02 µM): 0.405
- relative viability (BEN; first compound 0.06325 µM): 0.516
- relative viability (BEN; first compound 0.2 µM): 0.272
- relative viability (NCI-H1915; first compound 0.002 µM): 0.662
- relative viability (NCI-H1915; first compound 0.006325 µM): 0.674
- relative viability (NCI-H1915; first compound 0.02 µM): 0.627
- relative viability (NCI-H1915; first compound 0.06325 µM): 0.473
- relative viability (NCI-H1915; first compound 0.2 µM): 0.0604
- relative viability (NCI-H838; first compound 0.002 µM): 0.994
- relative viability (NCI-H838; first compound 0.006325 µM): 0.89
- relative viability (NCI-H838; first compound 0.02 µM): 0.775
- relative viability (NCI-H838; first compound 0.06325 µM): 0.625
- relative viability (NCI-H838; first compound 0.2 µM): 0.597
- relative viability (NCI-H1355; first compound 0.002 µM): 0.822
- relative viability (NCI-H1355; first compound 0.006325 µM): 0.693
- relative viability (NCI-H1355; first compound 0.02 µM): 0.526
- relative viability (NCI-H1355; first compound 0.06325 µM): 0.324
- relative viability (NCI-H1355; first compound 0.2 µM): 0.145
- relative viability (NCI-H650; first compound 0.002 µM): 0.93
- relative viability (NCI-H650; first compound 0.006325 µM): 0.958
- relative viability (NCI-H650; first compound 0.02 µM): 0.587
- relative viability (NCI-H650; first compound 0.06325 µM): 0.139
- relative viability (NCI-H650; first compound 0.2 µM): 0.0919
- relative viability (NCI-H322M; first compound 0.002 µM): 0.585
- relative viability (NCI-H322M; first compound 0.006325 µM): 0.485
- relative viability (NCI-H322M; first compound 0.02 µM): 0.441
- relative viability (NCI-H322M; first compound 0.06325 µM): 0.376
- relative viability (NCI-H322M; first compound 0.2 µM): 0.391
- relative viability (NCI-H1793; first compound 0.002 µM): 0.406
- relative viability (NCI-H1793; first compound 0.006325 µM): 0.422
- relative viability (NCI-H1793; first compound 0.02 µM): 0.15
- relative viability (NCI-H1793; first compound 0.06325 µM): 0.0769
- relative viability (NCI-H1793; first compound 0.2 µM): 0.11
- relative viability (NCI-H441; first compound 0.002 µM): 1.08
- relative viability (NCI-H441; first compound 0.006325 µM): 1.05
- relative viability (NCI-H441; first compound 0.02 µM): 1.18
- relative viability (NCI-H441; first compound 0.06325 µM): 0.308
- relative viability (NCI-H441; first compound 0.2 µM): 0.126
- relative viability (LCLC-97TM1; first compound 0.002 µM): 0.251
- relative viability (LCLC-97TM1; first compound 0.006325 µM): 0.22
- relative viability (LCLC-97TM1; first compound 0.02 µM): 0.111
- relative viability (LCLC-97TM1; first compound 0.06325 µM): 0.167
- relative viability (LCLC-97TM1; first compound 0.2 µM): 0.0727
- relative viability (LOU-NH91; first compound 0.002 µM): 0.797
- relative viability (LOU-NH91; first compound 0.006325 µM): 0.799
- relative viability (LOU-NH91; first compound 0.02 µM): 0.66
- relative viability (LOU-NH91; first compound 0.06325 µM): 0.322
- relative viability (LOU-NH91; first compound 0.2 µM): 0.318
- relative viability (NCI-H2126; first compound 0.002 µM): 0.984
- relative viability (NCI-H2126; first compound 0.006325 µM): 1.01
- relative viability (NCI-H2126; first compound 0.06325 µM): 0.846
- relative viability (NCI-H2126; first compound 0.2 µM): 0.296
- relative viability (NCI-H3122; first compound 0.002 µM): 0.948
- relative viability (NCI-H3122; first compound 0.006325 µM): 0.942
- relative viability (NCI-H3122; first compound 0.02 µM): 0.626
- relative viability (NCI-H3122; first compound 0.06325 µM): 0.109
- relative viability (NCI-H3122; first compound 0.2 µM): 0.0654
- relative viability (NCI-H1395; first compound 0.002 µM): 0.399
- relative viability (NCI-H1395; first compound 0.006325 µM): 0.372
- relative viability (NCI-H1395; first compound 0.02 µM): 0.374
- relative viability (NCI-H1395; first compound 0.06325 µM): 0.343
- relative viability (NCI-H1395; first compound 0.2 µM): 0.384
- relative viability (NCI-H1651; first compound 0.002 µM): 0.445
- relative viability (NCI-H1651; first compound 0.006325 µM): 0.441
- relative viability (NCI-H1651; first compound 0.02 µM): 0.277
- relative viability (NCI-H1651; first compound 0.06325 µM): 0.446
- relative viability (NCI-H1651; first compound 0.2 µM): 0.181

Reference: the supplement of paper PMC10307832
